According to ChEMBL document CHEMBL5346930, “Discovery of novel N-benzylarylamide-dithiocarbamate based derivatives as dual inhibitors of tubulin polymerization and LSD1 that inhibit gastric cancers” (Eur J Med Chem, 2023):
Active and inactive are the calls of the source.

How the values were obtained:
Huh-7 = experiment: Antiproliferative activity against human Huh-7 cells assessed as inhibition of cell growth incubated for 48 hrs by MTT assay; format: functional, cell-based; details: Huh-7, 48 h
SMMC-7721 = experiment: Antiproliferative activity against human SMMC-7721 cells assessed as inhibition of cell growth incubated for 48 hrs by MTT assay; format: functional, cell-based; details: SMMC-7721, 48 h
MGC-803 [1] = experiment: Induction of cell cycle arrest in human MGC-803 cells assessed as accumulation of cells at G2/M phase at 24 nmol/L incubated for 48 hrs (reference value: 33%); format: functional
MGC-803 [2] = experiment: Induction of cell cycle arrest in human MGC-803 cells assessed as downregulation of CDC2 protein expression incubated for 48 hrs by Western blot analysis; format: functional, cell-based; details: dose 0-24 nmol/L
MGC-803 [3] = experiment: Induction of morphological changes in human MGC-803 cells assessed as appearance of oblate and bright cells at 0 to 24 nmol/L incubated for 48 hrs by bright field microscopic analysis; format: functional, cell-based; details: dose 0-24 nmol/L
MGC-803 [4] = experiment: Induction of morphological changes in human MGC-803 cells assessed as reduction in cell density at 0 to 24 nmol/L incubated for 48 hrs by bright field microscopic analysis; format: functional, cell-based; details: dose 0-24 nmol/L
SGC-7901 [5] = experiment: Induction of morphological changes in human SGC-7901 cells assessed as reduction in cell density at 0 to 30 nmol/L incubated for 48 hrs by bright field microscopic analysis; format: functional, cell-based; details: dose 0-30 nmol/L
MGC-803 [6] = experiment: Induction of morphological changes in human MGC-803 cells assessed as appearance of bright and shrunken nucleus at 0 to 24 nmol/L incubated for 48 hrs by DAPI staining based analysis; format: functional, cell-based; details: dose 0-24 nmol/L
MGC-803 [7] = experiment: Induction of morphological changes in human MGC-803 cells assessed as varied size of nucleus at 0 to 24 nmol/L incubated for 48 hrs by DAPI staining based analysis; format: functional, cell-based; details: dose 0-24 nmol/L
SGC-7901 [8] = experiment: Induction of morphological changes in human SGC-7901 cells assessed as appearance of broken nucleus at 30 nM incubated for 48 hrs by DAPI staining based analysis; format: functional, cell-based
SGC-7901 [9] = experiment: Induction of apoptosis in human SGC-7901 cells assessed as total apoptotic cells at 30 nmol/L incubated for 48 hrs by Annexin-FITC/PI staining based flow cytometry analysis (reference value: 5.9%); format: functional
SGC-7901 [10] = experiment: Induction of DNA damage in human SGC-7901 cells assessed as DNA fragmentation by measuring increase in comet tails by fluorescence microscope based comet assay; format: functional, cell-based; details: dose 0-30 nmol/L
MGC-803 [11] = experiment: Induction of apoptosis in human MGC-803 cells assessed as downregulation of Mcl-1 protein expression incubated for 48 hrs by Western blot analysis; format: functional, cell-based; details: dose 0-24 nmol/L
SGC-7901 [12] = experiment: Induction of apoptosis in human SGC-7901 cells assessed as activation of caspase-7 at 0 to 30 nmol/L incubated for 48 hrs by Western blot analysis; format: functional, cell-based; details: dose 0-30 nmol/L
MGC-803 [13] = experiment: Antitumor activity against human MGC-803 cells xenografted in BALB/c nude mouse assessed as tumor growth inhibition at 25 mg/kg/day, ip administered every day for 21 days; format: functional, organism-based; details: time 21.0 day
MGC-803 [14] = experiment: Antitumor activity against human MGC-803 cells xenografted in BALB/c nude mouse assessed as reduction in tumor weight at 25 mg/kg/day, ip administered every day for 21 days; format: functional, organism-based; details: time 21.0 day

COc1ccc(CN(C(=O)CSC(=S)N2CCN(c3ccc(N)cc3)CC2)c2cc(OC)c(OC)c(OC)c2)cc1O
60%: Activity (MGC-803 [1])
75.4%: Activity (SGC-7901 [9])
47.9 nM: IC50 (Huh-7)
active: Activity (MGC-803 [2]) Dose-Dependent Effect | Activity (MGC-803 [3]) | Activity (MGC-803 [4]) | Activity (SGC-7901 [5]) | Activity (MGC-803 [6]) | Activity (MGC-803 [7]) | Activity (SGC-7901 [8]) | Activity (SGC-7901 [10]) Dose-Dependent Effect | Activity (MGC-803 [11]) Dose-Dependent Effect | Activity (SGC-7901 [12]) | Activity (MGC-803 [13]) | Activity (MGC-803 [14])
27 nM: IC50 (SMMC-7721)
